Experimental data published in patent US9932637B2, “Genetic polymorphisms associated with cardiovascular disorders and drug response, methods of detection and uses thereof” (CELERA CORPORATION, priority 2003, dated 2018).

System: patients with prior myocardial infarction (CARE study)
Test: CARE: association of SNPs with pravastatin treatment in cardiovascular events prevention (logistic regression, odds ratio pravastatin vs placebo by genotype; Table 8)
Type: in vivo, human
Conditions: for Prava vs. Placebo Odds Ratio, 0 Rare Alleles / Prava vs. Placebo Odds Ratio, 1 Rare Alleles / Prava vs. Placebo Odds Ratio, 2 Rare Alleles: SELP hCV11975296; for Prava vs. Placebo Odds Ratio, 0 Rare Alleles / Prava vs. Placebo Odds Ratio, 1 Rare Alleles / Prava vs. Placebo Odds Ratio, 2 Rare Alleles / Odds ratio pravastatin vs placebo: All Patients; for Any Report of Stroke During CARE, n/total (%) / Fatal/Non-fatal Cerebrovascular Disease, n/total (%): SERPINA1 hCV1260328, All Patients; for Coronary Artery Bypass Graft, n/total (%): SERPINA1 hCV25640505, All Patients; for Fatal/Nonfatal Atherosclerotic CV Disease, n/total (%): SERPINB6 hCV16190893, All Patients; for Fatal CHD/Definite Non-fatal MI, n/total (%): TAP1 hCV549926, All Patients
Description: In order to identify genetic markers associated with acute coronary events (e.g. MI, stroke, unstable angina, congestive heart failure, etc.) or response to statin treatment for the prevention of coronary events, samples from the Cholesterol and Recurrent Events (CARE) study (a randomized multicentral double-blinded trial on secondary prevention of acute coronary events with pravastatin) (Sacks et al., 1991, Am. J. Cardiol. 68: 1436-1446) were genotyped. A well-documented myocardial infarction (MI) was one of the enrollment criteria for entry into the CARE study. Patients were enrolled in the CARE trial from 80 participating study centers. […] Patients were randomized to receive either 40 mg of pravastatin once daily or a matching placebo. The primary endpoint of the trial was death from coronary heart disease and the median duration of follow-up was 5.0 years (range, 4.0 to 6.2 years). […] Secondary endpoints of other related cardiovascular or metabolic disease events, and changes in clinical variables were also recorded in pravastatin-treated and placebo groups. All individuals included in the study had signed a written informed consent form and the study protocol was approved by the respective Institutional Review Boards (IRBs).
For genotyping SNPs in CARE patient samples, DNA was extracted from blood samples using conventional DNA extraction methods such as the QIA-amp kit from Qiagen. Genotypes were obtained on an ABI PRISM® 7900HT Sequence Detection PCR system (Applied Biosystems, Foster City, Calif.) by kinetic allele-specific PCR, similar to the method described by Germer et al. (Germer S., Holland M. J., Higuchi R. 2000, Genome Res. 10: 258-266).
Statistical analysis for association of SNPs with pravastatin treatment in cardiovascular events prevention (Table 8) was carried out using an overall logistic regression model that included an intercept, a parameter for the effect of a genotype containing two rare alleles versus a genotype containing no rare alleles, a parameter for the effect of a genotype containing one rare allele versus a genotype containing no rare alleles, a parameter for the effect of use of pravastatin versus the use of placebo, and parameters for the interaction effects between SNP genotypes and pravastatin use. The test of the overall model is a chi-square test with two degrees of freedom for analyses containing all three genotypes, and one degree of freedom for analyses containing two genotypes.
Effect sizes were estimated through odds ratios (pravastatin group versus placebo) for carriers of each genotype (groups of 0, 1, and 2 minor allele carriers). The effect was considered to be significant if p-value for testing whether any of the interactions between SNP genotypes and pravastatin use were <0.05. […] Odds ratios less than one indicate that the specific SNP allele has a protective effect and odds ratios greater than one indicate that the specific SNP allele has an adverse effect.

[1] = SELP hCV11975296, All Patients, 2 Rare Alleles, Prava arm
[2] = Coronary Artery Bypass or Revascularization
[3] = Hosp. for Cardiovascular Disease
[4] = SN hCV25623265, All Patients, 0 Rare Alleles, Prava arm
[5] = SN hCV25623265, All Patients, 1 Rare Allele, Prava arm
[6] = SN hCV25623265, All Patients, 2 Rare Alleles, Prava arm
[7] = TGFB1 hCV8708473, All Patients, 0 Rare Alleles, Prava arm

In the case of `CC[C@H](C)C(=O)O[C@H]1C[C@H](O)C=C2C=C[C@H](C)[C@H](CC[C@@H](O)C[C@@H](O)CC(=O)O)[C@H]21` [pravastatin], the “Coronary Artery Bypass or Revascularization, n/total (%)” value [1] is reported as “(20.3%)”, the “Hosp. for Cardiovascular Disease, n/total (%)” value [1] is reported as “(49.2%)” and the “Hosp. for Unstable Angina, n/total (%)” value [1] is reported as “(27.1%)”. For the same molecule, the “Prava vs. Placebo Odds Ratio, 0 Rare Alleles” value [2] was 0.68, the “Prava vs. Placebo Odds Ratio, 1 Rare Alleles” value [2] was 0.63 and the “Prava vs. Placebo Odds Ratio, 2 Rare Alleles” value [2] was 5.74. For the same molecule, the “Prava vs. Placebo Odds Ratio, 0 Rare Alleles” value [3] was 0.81, the “Prava vs. Placebo Odds Ratio, 1 Rare Alleles” value [3] was 0.62 and the “Prava vs. Placebo Odds Ratio, 2 Rare Alleles” value [3] was 1.71. The “Prava vs. Placebo Odds Ratio, 0 Rare Alleles” value (Hosp. for Unstable Angina) was 0.82, the “Prava vs. Placebo Odds Ratio, 1 Rare Alleles” value (Hosp. for Unstable Angina) was 0.69 and the “Prava vs. Placebo Odds Ratio, 2 Rare Alleles” value (Hosp. for Unstable Angina) was 5.45. For the same molecule, the “Any Report of Stroke During CARE, n/total (%)” value (0 Rare Alleles, Prava arm) was “(2.9%)”, the “Fatal/Non-fatal Cerebrovascular Disease, n/total (%)” value (0 Rare Alleles, Prava arm) was “(5.9%)” and the “Any Report of Stroke During CARE, n/total (%)” value (1 Rare Allele, Prava arm) was “(1.2%)”. For the same molecule, the “Fatal/Non-fatal Cerebrovascular Disease, n/total (%)” value (1 Rare Allele, Prava arm) was “(2.8%)”, the “Any Report of Stroke During CARE, n/total (%)” value (2 Rare Alleles, Prava arm) was “(1.4%)” and the “Fatal/Non-fatal Cerebrovascular Disease, n/total (%)” value (2 Rare Alleles, Prava arm) was “(2.7%)”. For the same molecule, the “Odds ratio pravastatin vs placebo” value (SERPINA1 hCV1260328, Any Report of Stroke During CARE, 0 rare alleles) was 0.87, the “Odds ratio pravastatin vs placebo” value (SERPINA1 hCV1260328, Any Report of Stroke During CARE, 1 rare allele) was 0.23 and the “Odds ratio pravastatin vs placebo” value (SERPINA1 hCV1260328, Any Report of Stroke During CARE, 2 rare alleles) was 0.21. The “Odds ratio pravastatin vs placebo” value (SERPINA1 hCV1260328, Fatal/Non-fatal Cerebrovascular Disease, 0 rare alleles) was 1.03, the “Odds ratio pravastatin vs placebo” value (SERPINA1 hCV1260328, Fatal/Non-fatal Cerebrovascular Disease, 1 rare allele) was 0.36 and the “Odds ratio pravastatin vs placebo” value (SERPINA1 hCV1260328, Fatal/Non-fatal Cerebrovascular Disease, 2 rare alleles) was 0.17. The “Coronary Artery Bypass Graft, n/total (%)” value (0 Rare Alleles, Prava arm) was “(6.1%)”, the “Coronary Artery Bypass Graft, n/total (%)” value (1 Rare Allele, Prava arm) was “(9.0%)” and the “Coronary Artery Bypass Graft, n/total (%)” value (2 Rare Alleles, Prava arm) was “(7.4%)”. The “Fatal/Nonfatal Atherosclerotic CV Disease, n/total (%)” value (0 Rare Alleles, Prava arm) was “(34.9%)”, the “Fatal/Nonfatal Atherosclerotic CV Disease, n/total (%)” value (1 Rare Allele, Prava arm) was “(32.4%)” and the “Fatal/Nonfatal Atherosclerotic CV Disease, n/total (%)” value (2 Rare Alleles, Prava arm) was “(29.7%)”. The “Coronary Artery Bypass or Revascularization, n/total (%)” value [4] was “(13.0%)”, the “Definite Nonfatal MI, n/total (%)” value [4] was “(8.2%)” and the “Fatal CHD/Definite Nonfatal MI, n/total (%)” value [4] was “(9.7%)”. For the same molecule, the “Percutaneous Transluminal Coronary Angioplas, n/total (%)” value [4] was “(7.5%)”, the “Total Coronary Heart Disease Events, n/total (%)” value [4] was “(27.2%)” and the “Coronary Artery Bypass or Revascularization, n/total (%)” value [5] was “(14.9%)”. The “Definite Nonfatal MI, n/total (%)” value [5] was “(7.6%)”, the “Fatal CHD/Definite Nonfatal MI, n/total (%)” value [5] was “(10.8%)” and the “Percutaneous Transluminal Coronary Angioplas, n/total (%)” value [5] was “(9.5%)”. For the same molecule, the “Total Coronary Heart Disease Events, n/total (%)” value [5] was “(30.5%)”, the “Coronary Artery Bypass or Revascularization, n/total (%)” value [6] was “(15.0%)” and the “Definite Nonfatal MI, n/total (%)” value [6] was “(2.8%)”. For the same molecule, the “Fatal CHD/Definite Nonfatal MI, n/total (%)” value [6] was “(4.6%)”, the “Percutaneous Transluminal Coronary Angioplas, n/total (%)” value [6] was “(9.8%)” and the “Total Coronary Heart Disease Events, n/total (%)” value [6] was “(28.2%)”. The “Fatal CHD/Definite Non-fatal MI, n/total (%)” value (0 Rare Alleles, Prava arm) was “(10.0%)”, the “Fatal CHD/Definite Non-fatal MI, n/total (%)” value (1 Rare Allele, Prava arm) was “(8.2%)” and the “Fatal CHD/Definite Non-fatal MI, n/total (%)” value (2 Rare Alleles, Prava arm) was “(4.1%)”. For the same molecule, the “Odds ratio pravastatin vs placebo” value (TAP1 hCV549926, Fatal CHD/Definite Non-fatal MI, 0 rare alleles) was 0.85, the “Odds ratio pravastatin vs placebo” value (TAP1 hCV549926, Fatal CHD/Definite Non-fatal MI, 1 rare allele) was 0.54 and the “Odds ratio pravastatin vs placebo” value (TAP1 hCV549926, Fatal CHD/Definite Non-fatal MI, 2 rare alleles) was 0.16. For the same molecule, the “Any Report of Stroke Prior to or During CARE, n/total (%)” value [7] was “(7.5%)”, the “Cardiovascular Mortality, n/total (%)” value [7] was “(5.5%)” and the “Fatal Atherosclerotic Cardiovascular Disease, n/total (%)” value [7] was “(5.4%)”. For the same molecule, the “Fatal Coronary Heart Disease, n/total (%)” value [7] was “(5.1%)”, the “Fatal/Non-fatal Atherosclerotic CV Disease, n/total (%)” value [7] was “(37.2%)” and the “Total Coronary Heart Disease Events, n/total (%)” value [7] was “(32.1%)”. For the same molecule, the “Total Mortality, n/total (%)” value [7] was “(7.2%)”.
